Our source for the IC50 values is patent US11498928B2, “Macrocyclic spiroethers as Mcl-1 inhibitors” (ASCENTAGE PHARMA (SUZHOU) CO., LTD., priority 2019, dated 2022).

One may read the IC50 as the concentration needed to halve the response being measured.

The target of assay [1] is T1, Mcl-1 protein (residues 171-323) (Homo sapiens, UniProt Q07820).
T1 construct: Tag-free Mcl-1 protein (residues 171-323) was used in the FP assay
In words: Inhibition of Mcl-1 by fluorescence polarization (FP) competitive binding assay with FAM-Bid tracer. The conditions noted are these: 2 nM FAM-Bid, 20 nM Mcl-1, 30 min. The procedure, abridged: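 Ten-point compound titrations compete against 2 nM fluorescein-Bid for 20 nM Mcl-1 (171-323, untagged). Incubation 30 min RT in PBS buffer with BGG and Triton, 5% DMSO final. mP reduction fitted by sigmoidal nonlinear regression for IC50.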
Background: In fluorescence polarisation assays a small probe gives low polarisation when free and higher when bound to something large.

Another assay deals with OPM-2 cells. Description: Cell viability assay (OPM-2 cells), CCK-8. The format is cell-based. The conditions noted are these: Homo sapiens, OPM-2, 24 h, 5% FBS. The gist of the method:
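Viability read by CCK-8 absorbance (450 nm, 4 h reagent incubation) after 24 h compound exposure of 20000 OPM-2 cells per well at 37 °C. IC50 fitted by nonlinear regression on vehicle-normalized signal.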

Another assay has as its system NCI-H929 cells. Description: Cell viability assay (NCI-H929 cells), CCK-8. In kind it is cell-based. The conditions noted are these: Homo sapiens, NCI-H929, 24 h, 5% FBS. The gist of the method:
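Viability of NCI-H929 cells was measured using the Cell Counting Kit-8. After 24 hrs of compound exposure, 10 μL of CCK-8 solution per well was incubated for 1-4 hours, and absorbance was read at 450 nm on a BioTek Synergy 1MF. Readings were normalized to vehicle (DMSO) cells, and IC50 values were derived by nonlinear regression in GraphPad Prism 6.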

T1 sequence (Q07820 171-323): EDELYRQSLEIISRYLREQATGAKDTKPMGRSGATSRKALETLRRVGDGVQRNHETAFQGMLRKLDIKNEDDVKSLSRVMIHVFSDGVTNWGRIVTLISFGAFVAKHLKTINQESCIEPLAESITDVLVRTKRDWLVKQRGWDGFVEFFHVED

For the compound `C[C@@H]1[C@@H](C)S(=O)(=O)NC(=O)c2ccc3c(c2)N(C[C@@H]2CC[C@H]2[C@@H](OCCN2CCOCC2)C2=C[C@H]1C2)C[C@@]1(CCCc2c1ccc(Cl)c2F)CO3` [compound 59, (1S,11′R,12′S,13′R,16′R,16a′R,18a′R,E)-6-chloro-5-fluoro-11′,12′-dimethyl-16′-(2-morpholinoethoxy)-3,4,12′,13′,16′,16a′,17′,18′,18a′,19′-decahydro-1′H,2H,3′H,11′H-spiro[naphthalene-1,2′-[5,7]etheno[13,15]methanocyclobuta[i][1,4]oxazepino[3,4-f][1]thia[2,7]diazacyclohexadecin]-8′(9′H)-one 10′,10′-dioxide], the IC50 was 0.013 µM in assay [1], 0.037 µM with OPM-2 cells and 0.0041 µM in the assay on NCI-H929 cells.
For `COCCO[C@H]1C2=C[C@@H](C2)[C@H](C)[C@@H](C)S(=O)(=O)NC(=O)c2ccc3c(c2)N(C[C@@H]2CC[C@H]21)C[C@@]1(CCCc2c1ccc(Cl)c2F)CO3` [compound 60, (1S,11′R,12′S,13′R,16′R,16a′R,18a′R,E)-6-chloro-5-fluoro-16′-(2-methoxyethoxy)-11′,12′-dimethyl-3,4,12′,13′,16′,16a′,17′,18′,18a′,19′-decahydro-1′H,2H,3′H,11′H-spiro[naphthalene-1,2′-[5,7]etheno[13,15]methanocyclobuta[i][1,4]oxazepino[3,4-f][1]thia[2,7]diazacyclohexadecin]-8′(9′H)-one 10′,10′-dioxide] the same measures were 0.015 µM, 0.066 µM and 0.019 µM.
For `C[C@@H]1[C@@H](C)S(=O)(=O)NC(=O)c2ccc3c(c2)N(C[C@@H]2CC[C@H]2[C@@H](OCCS(C)(=O)=O)C2=C[C@H]1C2)C[C@@]1(CCCc2c1ccc(Cl)c2F)CO3` [compound 61, (1S,11′R,12′S,13′R,16′R,16a′R,18a′R,E)-6-chloro-5-fluoro-11′,12′-dimethyl-16′-(2-(methylsulfonyl)ethoxy)-3,4,12′,13′,16′,16a′,17′,18′,18a′,19′-decahydro-1′H,2H,3′H,11′H-spiro[naphthalene-1,2′-[5,7]etheno[13,15]methanocyclobuta[i][1,4]oxazepino[3,4-f][1]thia[2,7]diazacyclohexadecin]-8′(9′H)-one 10′,10′-dioxide] the same measures were 0.01 µM, 0.075 µM and 0.028 µM.
For `C[C@@H]1[C@@H](C)S(=O)(=O)NC(=O)c2ccc3c(c2)N(C[C@@H]2CC[C@H]2[C@@H](OCc2ncccn2)C2=C[C@H]1C2)C[C@@]1(CCCc2c1ccc(Cl)c2F)CO3` [compound 62, (1S,11′R,12′S,13′R,16′R,16a′R,18a′R,E)-6-chloro-5-fluoro-11′,12′-dimethyl-16′-(pyrimidin-2-ylmethoxy)-3,4,12′,13′,16′,16a′,17′,18′,18a′,19′-decahydro-1′H,2H,3′H,11′H-spiro[naphthalene-1,2′-[5,7]etheno[13,15]methanocyclobuta[i][1,4]oxazepino[3,4-f][1]thia[2,7]diazacyclohexadecin]-8′(9′H)-one 10′,10′-dioxide] the same measures were 0.0081 µM, 0.059 µM and 0.0093 µM.
For `C[C@@H]1[C@@H](C)S(=O)(=O)NC(=O)c2ccc3c(c2)N(C[C@@H]2CC[C@H]2[C@@H](OCc2nccn2C)C2=C[C@H]1C2)C[C@@]1(CCCc2c1ccc(Cl)c2F)CO3` [compound 63, (1S,11′R,12′S,13′R,16′R,16a′R,18a′R,E)-6-chloro-5-fluoro-11′,12′-dimethyl-16′-((1-methyl-1H-imidazol-2-yl)methoxy)-3,4,12′,13′,16′,16a′,17′,18′,18a′,19′-decahydro-1′H,2H,3′H, 11′H-spiro[naphthalene-1,2′-[5,7]etheno[13,15]methanocyclobuta[i][1,4]oxazepino[3,4-f][1]thia[2,7]diazacyclohexadecin]-8′(9′H)-one 10′,10′-dioxide], the IC50 was 0.013 µM in assay [1], 0.088 µM in the assay on OPM-2 cells and 0.098 µM in the assay with NCI-H929 cells.
For `C[C@@H]1[C@@H](C)S(=O)(=O)NC(=O)c2ccc3c(c2)N(C[C@@H]2CC[C@H]2[C@@H](OCC(=O)N(C)C)C2=C[C@H]1C2)C[C@@]1(CCCc2c1ccc(Cl)c2F)CO3` [compound 64, 2-(((1 S, 11′R,12′S,13′R,16′R,16a′R,18a′R,E)-6-chloro-5-fluoro-11′,12′-dimethyl-10′,10′-dioxido-8′-oxo-3,4,8′,9′,12′,13′,16′,16a′,17′,18′,18a′,19′-dodecahydro-1′H,2H,3′H, 11′H-spiro[naphthalene-1,2′-[5,7]etheno[13,15]methanocyclobuta[i][1,4]oxazepino[3,4-f][1]thia[2,7]diazacyclohexadecin]-16′-yl)oxy)-N,N-dimethylacetamide] the same measures were 0.014 µM, 0.12 µM and 0.0094 µM.
Take `C[C@@H]1[C@@H](C)S(=O)(=O)NC(=O)c2ccc3c(c2)N(C[C@@H]2CC[C@H]2[C@@H](OCCN2CCNCC2)C2=C[C@H]1C2)C[C@@]1(CCCc2c1ccc(Cl)c2F)CO3` [compound 65, (1S,11′R,12′S,13′R,16′R,16a′R,18a′R,E)-6-chloro-5-fluoro-11′,12′-dimethyl-16′-(2-(piperazin-1-yl)ethoxy)-3,4,12′,13′,16′,16a′,17′,18′,18a′,19′-decahydro-1′H,2H,3′H, 11′H-spiro[naphthalene-1,2′-[5,7]etheno[13,15]methanocyclobuta[i][1,4]oxazepino[3,4-f][1]thia[2,7]diazacyclohexadecin]-8′(9′H)-one 10′,10′-dioxide]: the figures for the IC50 (in assay [1]; in the assay on OPM-2 cells; in the assay with NCI-H929 cells) were 0.015 µM, 0.247 µM and 0.21 µM, respectively.
For `C[C@@H]1[C@@H](C)S(=O)(=O)NC(=O)c2ccc3c(c2)N(C[C@@H]2CC[C@H]2[C@@H](OCCN2CCCC2)C2=C[C@H]1C2)C[C@@]1(CCCc2c1ccc(Cl)c2F)CO3` [compound 66, (1S,11′R,12′S,13′R,16′R,16a′R,18a′R,E)-6-chloro-5-fluoro-11′,12′-dimethyl-16′-(2-(pyrrolidin-1-yl)ethoxy)-3,4,12′,13′,16′,16a′,17′,18′,18a′,19′-decahydro-1′H,2H,3′H,11′H-spiro[naphthalene-1,2′-[5,7]etheno[13,15]methanocyclobuta[i][1,4]oxazepino[3,4-f][1]thia[2,7]diazacyclohexadecin]-8′(9′H)-one 10′,10′-dioxide] the same measures were 0.015 µM, 0.031 µM and 0.0077 µM.
Turning to `C[C@@H]1[C@@H](C)S(=O)(=O)NC(=O)c2ccc3c(c2)N(C[C@@H]2CC[C@H]2[C@@H](OCC(=O)N2CCOCC2)C2=C[C@H]1C2)C[C@@]1(CCCc2c1ccc(Cl)c2F)CO3` [compound 67, (1S,11′R,12′S,13′R,16′R,16a′R,18a′R,E)-6-chloro-5-fluoro-11′,12′-dimethyl-16′-(2-morpholino-2-oxoethoxy)-3,4,12′,13′,16′,16a′,17′,18′,18a′,19′-decahydro-1′H,2H,3′H, 11′H-spiro[naphthalene-1,2′-[5,7]etheno[13,15]methanocyclobuta[i][1,4]oxazepino[3,4-f][1]thia[2,7]diazacyclohexadecin]-8′(9′H)-one 10′,10′-dioxide], the half-maximal inhibitory concentration (IC50) was 0.015 µM in assay [1], 0.077 µM with OPM-2 cells and 0.097 µM with NCI-H929 cells.
The corresponding values for `C[C@@H]1[C@@H](C)S(=O)(=O)NC(=O)c2ccc3c(c2)N(C[C@@H]2CC[C@H]2[C@@H](OCC(=O)N2CCCC2)C2=C[C@H]1C2)C[C@@]1(CCCc2c1ccc(Cl)c2F)CO3` [compound 68, (1S,11′R,12′S,13′R,16′R,16a′R,18a′R,E)-6-chloro-5-fluoro-11′,12′-dimethyl-16′-(2-oxo-2-(pyrrolidin-1-yl)ethoxy)-3,4,12′,13′,16′,16a′,17′,18′,18a′,19′-decahydro-1′H,2H,3′H, 11′H-spiro[naphthalene-1,2′-[5,7]etheno[13,15]methanocyclobuta[i][1,4]oxazepino[3,4-f][1]thia[2,7]diazacyclohexadecin]-8′(9′H)-one 10′,10′-dioxide] are 0.015 µM, 0.047 µM and 0.043 µM.
The corresponding values for `C[C@@H]1[C@@H](C)S(=O)(=O)NC(=O)c2ccc3c(c2)N(C[C@@H]2CC[C@H]2[C@@H](OCC(=O)N2CCCCC2)C2=C[C@H]1C2)C[C@@]1(CCCc2c1ccc(Cl)c2F)CO3` [compound 69, (1S,11′R,12′S,13′R,16′R,16a′R,18a′R,E)-6-chloro-5-fluoro-11′,12′-dimethyl-16′-(2-oxo-2-(piperidin-1-yl)ethoxy)-3,4,12′,13′,16′,16a′,17′,18′,18a′,19′-decahydro-1′H,2H,3′H,11′H-spiro[naphthalene-1,2′-[5,7]etheno[13,15]methanocyclobuta[i][1,4]oxazepino[3,4-f][1]thia[2,7]diazacyclohexadecin]-8′(9′H)-one 10′,10′-dioxide] are 0.014 µM, 0.04 µM and 0.069 µM.
